Molecular target: Acetylcholinesterase (Homo sapiens, UniProt P22303)
Experiment: Inhibition of acetylcholinesterase activity

Chain of Acetylcholinesterase (P22303 whole entry): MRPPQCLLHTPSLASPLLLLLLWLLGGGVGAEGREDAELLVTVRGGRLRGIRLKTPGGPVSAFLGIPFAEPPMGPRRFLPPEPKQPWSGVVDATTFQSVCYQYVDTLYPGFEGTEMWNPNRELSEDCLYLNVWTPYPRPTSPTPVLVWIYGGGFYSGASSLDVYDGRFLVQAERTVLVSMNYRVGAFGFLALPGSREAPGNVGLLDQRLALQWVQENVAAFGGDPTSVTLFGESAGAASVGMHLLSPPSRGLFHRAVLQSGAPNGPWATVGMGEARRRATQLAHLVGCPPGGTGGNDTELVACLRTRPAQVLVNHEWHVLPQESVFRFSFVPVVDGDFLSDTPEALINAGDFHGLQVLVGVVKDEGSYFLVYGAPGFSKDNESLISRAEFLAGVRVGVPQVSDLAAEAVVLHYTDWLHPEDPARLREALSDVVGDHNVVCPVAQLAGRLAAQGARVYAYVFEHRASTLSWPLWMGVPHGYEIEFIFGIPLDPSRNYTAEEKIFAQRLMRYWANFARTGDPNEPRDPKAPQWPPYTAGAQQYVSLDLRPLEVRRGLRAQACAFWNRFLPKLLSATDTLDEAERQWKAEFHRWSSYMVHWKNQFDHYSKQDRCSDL

Structure (SMILES) | IC50 [nM]
CC1CCN(Cc2ccc3ccccc3c2)CC1 | 2900
CN1CCC(C[C@H]2Cc3ccccc3C2=O)CC1 | 7.7
CC1CCN(Cc2ccccc2[N+](=O)[O-])CC1 | 160
CC1CCN(CC2CCCCC2)CC1 | 8.9
CN1CCC(C2Cc3ccccc3C2=O)CC1 (centres undefined) | 3300
CC1CCN(Cc2ccccc2)CC1 | 5.3
CN1CCN(CC2Cc3ccccc3C2=O)CC1 (centres undefined) | 94
Cc1ccccc1CN1CCC(C)CC1 | 10
CN1CCC(/C=C2\Cc3ccccc3C2=O)CC1 | 8.4
CN1CCC(CCC2C(=O)Nc3ccccc3C2=O)CC1 (centres undefined) | 4.2
CN1CCC(=C2Cc3ccccc3C2=O)CC1 | 1200
CN1CCC(CCCC2Cc3ccccc3C2=O)CC1 (centres undefined) | 1.5
CN1CCC(/C=C/C=C2\Cc3ccccc3C2=O)CC1 | 3
CN1CCC(CC/C=C2\Cc3ccccc3C2=O)CC1 | 0.82
CC1CCN(CCc2ccccc2)CC1 | 180
CN1CCC(CCN2C(=O)c3ccccc3C2=O)CC1 | 0.9
CC1CCN(Cc2cccc3ccccc23)CC1 | 220
CN1CCC(C[C@@H]2Cc3ccccc3C2=O)CC1 | 5.3
CC1CCN(CC2Cc3ccccc3C2=O)CC1 (centres undefined) | 480

From ChEMBL document CHEMBL1126158, “Conformational analyses and molecular-shape comparisons of a series of indanone-benzylpiperidine inhibitors of acetylcholinesterase” (J Med Chem, 1992)
